Data set [1] has as its system Mycobacterium tuberculosis. The experiment in a line: Antitubercular activity against Mycobacterium tuberculosis. Format: functional.
The test system of data set [2] is Salmonella typhimurium. The data set can be described thus: Genotoxicity in Salmonella typhimurium TA98 assessed as increase in revertant colonies at 0.5 uM preincubated for 20 mins followed by addition of top agar and minimal agar and measured after 72 hrs in absence of S9 metabolic activation system by Ames test relative to control. Format: toxicity, organism-based. The conditions noted are these: salmonella enterica subsp. enterica serovar typhimurium.

Data set [3] concerns Mycobacterium tuberculosis. The experiment in a line: Potency index, ratio of pyrazinamide MIC to compound MIC for antitubercular activity against Mycobacterium tuberculosis H37Rv ATCC 27294. Format: functional.
Data set [4] is described as follows: Cytotoxicity against human HepG2 cells after 24 hrs by WST-1 assay. The class given is cell-based. The conditions noted are these: read-out: LC50.
For data set [5], the system named is Salmonella typhimurium. The experiment in a line: Genotoxicity in Salmonella typhimurium TA98 assessed as increase in revertant colonies at 500 uM preincubated for 20 mins followed by addition of top agar and minimal agar and measured after 72 hrs in absence of S9 metabolic activation system by Ames test relative to control. Format: toxicity, organism-based. The conditions noted are these: salmonella enterica subsp. enterica serovar typhimurium.

In data set [6] the test system is J774.A1. The experiment in a line: Cytotoxicity against mouse J774A.1 cells assessed as decrease in cell viability at 1 uM after 20 hrs by resazurin dye-based fluorimetric method. The conditions noted are these: j774.a1, 20 h.
Data set [7] relates to J774.A1. The experiment in a line: Cytotoxicity against mouse J774A.1 cells assessed as decrease in cell viability at 100 uM after 20 hrs by resazurin dye-based fluorimetric method. The conditions noted are these: j774.a1, 20 h.
In data set [8] the test system is J774.A1. The data set can be described thus: Cytotoxicity against mouse J774A.1 cells assessed as decrease in cell viability at 100 nM after 20 hrs by resazurin dye-based fluorimetric method. The conditions noted are these: j774.a1, 20 h, 0.1 µM.
Data set [9] has as its system Mycobacterium tuberculosis. The data set can be described thus: Potency index, ratio of ethambutol MIC to compound MIC for antitubercular activity against Mycobacterium tuberculosis H37Rv ATCC 27294. Format: functional.
The test system of data set [10] is Salmonella typhimurium. The data set can be described thus: Genotoxicity in Salmonella typhimurium TA100 assessed as increase in revertant colonies at 50 uM preincubated for 20 mins followed by addition of top agar and minimal agar and measured after 72 hrs in presence of S9 metabolic activation system by Ames test relative to control. The class given is toxicity, organism-based. The conditions noted are these: salmonella enterica subsp. enterica serovar typhimurium.

Data set [11] relates to Salmonella typhimurium. The data set can be described thus: Genotoxicity in Salmonella typhimurium TA98 assessed as increase in revertant colonies at 50 uM preincubated for 20 mins followed by addition of top agar and minimal agar and measured after 72 hrs in presence of S9 metabolic activation system by Ames test relative to control. Format: toxicity, organism-based. The conditions noted are these: salmonella enterica subsp. enterica serovar typhimurium.

Data set [12] deals with Salmonella typhimurium. The data set can be described thus: Genotoxicity in Salmonella typhimurium TA98 assessed as increase in revertant colonies at 5000 uM preincubated for 20 mins followed by addition of top agar and minimal agar and measured after 72 hrs in absence of S9 metabolic activation system by Ames test relative to control. Format: toxicity, organism-based. The conditions noted are these: salmonella enterica subsp. enterica serovar typhimurium.

For data set [13], the system named is Salmonella typhimurium. The experiment in a line: Genotoxicity in Salmonella typhimurium TA98 assessed as increase in revertant colonies at 0.5 uM preincubated for 20 mins followed by addition of top agar and minimal agar and measured after 72 hrs in presence of S9 metabolic activation system by Ames test relative to control. Format: toxicity, organism-based. The conditions noted are these: salmonella enterica subsp. enterica serovar typhimurium.

Data set [14] has as its system Mycobacterium tuberculosis. The experiment in a line: Antitubercular activity against Mycobacterium tuberculosis H37Rv ATCC 27294 after 5 days by microplate alamar blue assay. Format: functional. The conditions noted are these: H37Rv ATCC 27294, 120 h.
For data set [15], the system named is Salmonella typhimurium. The data set can be described thus: Genotoxicity in Salmonella typhimurium TA98 assessed as increase in revertant colonies at 500 uM preincubated for 20 mins followed by addition of top agar and minimal agar and measured after 72 hrs in presence of S9 metabolic activation system by Ames test relative to control. The conditions noted are these: salmonella enterica subsp. enterica serovar typhimurium. Format: toxicity, organism-based.

For data set [16], the system named is J774.A1. The experiment in a line: Cytotoxicity against mouse J774A.1 cells assessed as decrease in cell viability at 10 nM after 20 hrs by resazurin dye-based fluorimetric method. The conditions noted are these: j774.a1, 20 h, 0.01 µM.
Data set [17] concerns Salmonella typhimurium. The data set can be described thus: Genotoxicity in Salmonella typhimurium TA100 assessed as increase in revertant colonies at 500 uM preincubated for 20 mins followed by addition of top agar and minimal agar and measured after 72 hrs in absence of S9 metabolic activation system by Ames test relative to control. Format: toxicity, organism-based. The conditions noted are these: salmonella enterica subsp. enterica serovar typhimurium.

Data set [18] has as its system J774.A1. The data set can be described thus: Cytotoxicity against mouse J774A.1 cells assessed as decrease in cell viability at 10 uM after 20 hrs by resazurin dye-based fluorimetric method. The conditions noted are these: j774.a1, 20 h.
For data set [19], the system named is Salmonella typhimurium. The data set can be described thus: Genotoxicity in Salmonella typhimurium TA100 assessed as increase in revertant colonies at 0.5 uM preincubated for 20 mins followed by addition of top agar and minimal agar and measured after 72 hrs in presence of S9 metabolic activation system by Ames test relative to control. The conditions noted are these: salmonella enterica subsp. enterica serovar typhimurium. Format: toxicity, organism-based.

Data set [20] in a line: Selectivity index, ratio of LC50 for human HepG2 cells to MIC for Mycobacterium tuberculosis H37Rv ATCC 27294. Format: toxicity. The conditions noted are these: read-out: Selectivity Index.
The subject of data set [21] is Salmonella typhimurium. The data set can be described thus: Genotoxicity in Salmonella typhimurium TA100 assessed as increase in revertant colonies at 5000 uM preincubated for 20 mins followed by addition of top agar and minimal agar and measured after 72 hrs in absence of S9 metabolic activation system by Ames test relative to control. The conditions noted are these: salmonella enterica subsp. enterica serovar typhimurium. The class given is toxicity, organism-based.

The test system of data set [22] is J774.A1. The experiment in a line: Cytotoxicity against mouse J774A.1 cells assessed as decrease in cell viability at 1 nM after 20 hrs by resazurin dye-based fluorimetric method. The conditions noted are these: j774.a1, 20 h, 0.001 µM.
In data set [23] the test system is Salmonella typhimurium. The data set can be described thus: Genotoxicity in Salmonella typhimurium TA98 assessed as increase in revertant colonies at 5 uM preincubated for 20 mins followed by addition of top agar and minimal agar and measured after 72 hrs in absence of S9 metabolic activation system by Ames test relative to control. The conditions noted are these: salmonella enterica subsp. enterica serovar typhimurium. The class given is toxicity, organism-based.

Data set [24] relates to Salmonella typhimurium. The experiment in a line: Genotoxicity in Salmonella typhimurium TA100 assessed as increase in revertant colonies at 5000 uM preincubated for 20 mins followed by addition of top agar and minimal agar and measured after 72 hrs in presence of S9 metabolic activation system by Ames test relative to control. Format: toxicity, organism-based. The conditions noted are these: salmonella enterica subsp. enterica serovar typhimurium.

The subject of data set [25] is Salmonella typhimurium. The experiment in a line: Genotoxicity in Salmonella typhimurium TA100 assessed as increase in revertant colonies at 5 uM preincubated for 20 mins followed by addition of top agar and minimal agar and measured after 72 hrs in presence of S9 metabolic activation system by Ames test relative to control. The conditions noted are these: salmonella enterica subsp. enterica serovar typhimurium. Format: toxicity, organism-based.

Data set [26] relates to Salmonella typhimurium. The data set can be described thus: Genotoxicity in Salmonella typhimurium TA98 assessed as increase in revertant colonies at 5 uM preincubated for 20 mins followed by addition of top agar and minimal agar and measured after 72 hrs in presence of S9 metabolic activation system by Ames test relative to control. Format: toxicity, organism-based. The conditions noted are these: salmonella enterica subsp. enterica serovar typhimurium.

Data set [27] in a line: Cytotoxicity against human HepG2 cells after 3 hrs by WST-1 assay. The class given is cell-based. The conditions noted are these: read-out: LC50.
Data set [28] deals with Salmonella typhimurium. The experiment in a line: Genotoxicity in Salmonella typhimurium TA100 assessed as increase in revertant colonies at 50 uM preincubated for 20 mins followed by addition of top agar and minimal agar and measured after 72 hrs in absence of S9 metabolic activation system by Ames test relative to control. Format: toxicity, organism-based. The conditions noted are these: salmonella enterica subsp. enterica serovar typhimurium.

In data set [29] the test system is Salmonella typhimurium. The experiment in a line: Genotoxicity in Salmonella typhimurium TA98 assessed as increase in revertant colonies at 50 uM preincubated for 20 mins followed by addition of top agar and minimal agar and measured after 72 hrs in absence of S9 metabolic activation system by Ames test relative to control. The class given is toxicity, organism-based. The conditions noted are these: salmonella enterica subsp. enterica serovar typhimurium.

In data set [30] the test system is Salmonella typhimurium. The experiment in a line: Genotoxicity in Salmonella typhimurium TA100 assessed as increase in revertant colonies at 0.5 uM preincubated for 20 mins followed by addition of top agar and minimal agar and measured after 72 hrs in absence of S9 metabolic activation system by Ames test relative to control. Format: toxicity, organism-based. The conditions noted are these: salmonella enterica subsp. enterica serovar typhimurium.

Data set [31] concerns Salmonella typhimurium. The experiment in a line: Genotoxicity in Salmonella typhimurium TA100 assessed as increase in revertant colonies at 500 uM preincubated for 20 mins followed by addition of top agar and minimal agar and measured after 72 hrs in presence of S9 metabolic activation system by Ames test relative to control. The class given is toxicity, organism-based. The conditions noted are these: salmonella enterica subsp. enterica serovar typhimurium.

The subject of data set [32] is Salmonella typhimurium. The experiment in a line: Genotoxicity in Salmonella typhimurium TA100 assessed as increase in revertant colonies at 5 uM preincubated for 20 mins followed by addition of top agar and minimal agar and measured after 72 hrs in absence of S9 metabolic activation system by Ames test relative to control. The conditions noted are these: salmonella enterica subsp. enterica serovar typhimurium. The class given is toxicity, organism-based.

Data set [33] relates to Salmonella typhimurium. The experiment in a line: Genotoxicity in Salmonella typhimurium TA98 assessed as increase in revertant colonies at 5000 uM preincubated for 20 mins followed by addition of top agar and minimal agar and measured after 72 hrs in presence of S9 metabolic activation system by Ames test relative to control. The class given is toxicity, organism-based. The conditions noted are these: salmonella enterica subsp. enterica serovar typhimurium.

Converted amounts (≈) assume the structure as drawn.

In [1], `CC(=O)Nc1ccc(Cl)cc1C(F)(F)C(=O)NNC(N)=S` had an MIC of 297 µM (≈ 100 µg/mL).
On to `CC(=O)Nc1ccccc1C(=O)C(=O)NNC(=O)c1ccncc1`, for which the “fold change (FC)” value in [2] was found to be 1; in [5] it was 1.3; in data set [10], 1.2; in data set [11], 1.6; in [12], 1.3; in data set [13], 1.1. The “fold change (FC)” value in data set [15] is given as 2; in data set [17], 1.3; in data set [19], 1.1; in data set [21] it was 1.4; in data set [23], 1.1; in data set [24], 1.3. The “fold change (FC)” value in [25] amounted to 1.1; in data set [26], 1.1; in [28], 1.3; in [29], 1.2; in data set [30], 1; in data set [31] it was 1.2. Moreover, the “fold change (FC)” value in data set [32] is listed as 1.3; in data set [33], 2.5. Further, the Ratio turned out to be 1800 in [3] and 30 in [9]. Besides, in data set [4], the CC50 at 24 h was 31.5 µM. The Activity in [6] was found to be 99.5%; in data set [7] it was 93.3%; in data set [8] it was 97.7%; in [16] it was 98.7%; in data set [18] it was 97.1%; in [22], 99.6%. In addition, it took 0.47 µM (≈ 0.153 µg/mL) to inhibit growth in [14] (MIC). Further, in data set [20], the selectivity ratio turned out to be 67. The CC50 at 3 h in data set [27] was more than 200 µM.

The values above are taken from ChEMBL document CHEMBL4196010, “New hydrazides derivatives of isoniazid against Mycobacterium tuberculosis: Higher potency and lower hepatocytotoxicity” (Eur J Med Chem, 2018).
